In patent US11820766B2, “Monoacylglycerol lipase modulators” (Janssen Pharmaceutica NV, priority 2018, dated 2023):

target: T1, human MGL from HeLa cells (Homo sapiens, UniProt Q99685); assay: In vitro MGL activity assay: [glycerol-1,3-3H]-oleyl glycerol cleavage by MGL from HeLa cells; format: biochemical; details: 300 nM [Glycerol-1,3-3H]-oleyl glycerol, one hour incubation
T1 construct: combining endogenously expressed MGL from HeLa cells with test compounds; endogenous in cells; host or cells: HeLa cells / cell homogenates
T1 sequence (Q99685 1-303): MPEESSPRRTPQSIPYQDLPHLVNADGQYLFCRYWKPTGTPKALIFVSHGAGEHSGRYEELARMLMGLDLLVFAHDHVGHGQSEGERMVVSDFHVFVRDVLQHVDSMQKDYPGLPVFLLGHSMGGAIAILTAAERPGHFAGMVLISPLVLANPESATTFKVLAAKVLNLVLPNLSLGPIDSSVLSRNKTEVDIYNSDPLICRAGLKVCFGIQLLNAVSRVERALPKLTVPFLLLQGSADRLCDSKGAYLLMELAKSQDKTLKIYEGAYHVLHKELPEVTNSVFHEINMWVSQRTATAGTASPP
From the text: MGL is the predominant hydrolase in HeLa cells/cell homogenates.

Compared with `Cn1nc2c(c1-c1ccccc1)CCN(C(=O)c1cnc3ccccn13)C2` [Example 81, Imidazo[1,2-a]pyridin-3-yl(2-methyl-3-phenyl-2,4,5,7-tetrahydro-6H-pyrazolo[3,4-c]pyridin-6-yl)methanone], `Cn1nc2c(c1-c1ccccc1)CCN(C(=O)c1cccc3ncnn13)C2` [Example 85, [1,2,4]Triazolo[1,5-a]pyridin-5-yl(2-methyl-3-phenyl-2,4,5,7-tetrahydro-6H-pyrazolo[3,4-c]pyridin-6-yl)methanone] is 5.4-fold higher in IC50: 1320 nM for the first, 7140 nM for the second.

Going from `Cc1nc2cccc(Cl)n2c1C(=O)N1CCc2c(nn(C)c2-c2ccccc2)C1` [Example 82, (5-Chloro-2-methylimidazo[1,2-a]pyridin-3-yl)(2-methyl-3-phenyl-2,4,5,7-tetrahydro-6H-pyrazolo[3,4-c]pyridin-6-yl)methanone] to `Cn1nc2c(c1-c1ccccc1)CCN(C(=O)c1cccc3cccnc13)C2` [Example 93, (2-Methyl-3-phenyl-2,4,5,7-tetrahydro-6H-pyrazolo[3,4-c]pyridin-6-yl)(quinolin-8-yl)methanone], the IC50 falls from 4810 nM to 126 nM (38-fold).

Compared with `Cn1nc2c(c1-c1ccccc1)CCN(C(=O)c1c[nH]c3ccncc13)C2` [Example 83, (2-Methyl-3-phenyl-2,4,5,7-tetrahydro-6H-pyrazolo[3,4-c]pyridin-6-yl)(1H-pyrrolo[3,2-c]pyridin-3-yl)methanone], `Cn1nc2c(c1-c1ccccc1)CCN(C(=O)c1cccc3cnccc13)C2` [Example 92, Isoquinolin-5-yl(2-methyl-3-phenyl-2,4,5,7-tetrahydro-6H-pyrazolo[3,4-c]pyridin-6-yl)methanone] is 14-fold lower in IC50: 1500 nM for the first, 108 nM for the second.

`Cn1nc2c(c1-c1ccccc1)CCN(C(=O)c1ccnc3c1ccn3C)C2` [Example 84, (1-Methyl-1H-pyrrolo[2,3-b]pyridin-4-yl)(2-methyl-3-phenyl-2,4,5,7-tetrahydro-6H-pyrazolo[3,4-c]pyridin-6-yl)methanone] and `Cn1nc2c(c1-c1ccccc1)CCN(C(=O)c1ccnc3ccccc13)C2` [Example 86, (2-Methyl-3-phenyl-2,4,5,7-tetrahydro-6H-pyrazolo[3,4-c]pyridin-6-yl)(quinolin-4-yl)methanone] are within 1.5-fold of each other in IC50: 48.3 nM for the first, 32.4 nM for the second.

`Cn1nc2c(c1-c1ccccc1)CCN(C(=O)c1cncc3ccccc13)C2` [Example 87, Isoquinolin-4-yl(2-methyl-3-phenyl-2,4,5,7-tetrahydro-6H-pyrazolo[3,4-c]pyridin-6-yl)methanone] and `Cn1nc2c(c1-c1ccccc1)CCN(C(=O)c1nccc3ccccc13)C2` [Example 88, Isoquinolin-1-yl(2-methyl-3-phenyl-2,4,5,7-tetrahydro-6H-pyrazolo[3,4-c]pyridin-6-yl)methanone] are within 1.5-fold of each other in IC50: 39.8 nM for the first, 47.3 nM for the second.

Compared with `Cn1nc2c(c1-c1ccccc1)CCN(C(=O)c1cccc3ncccc13)C2` [Example 89, (2-Methyl-3-phenyl-2,4,5,7-tetrahydro-6H-pyrazolo[3,4-c]pyridin-6-yl)(quinolin-5-yl)methanone], `Cn1nc2c(c1-c1ccccc1)CCN(C(=O)c1cccc3nccnc13)C2` [Example 97, (2-Methyl-3-phenyl-2,4,5,7-tetrahydro-6H-pyrazolo[3,4-c]pyridin-6-yl)(quinoxalin-5-yl)methanone] is 76-fold higher in IC50: 56 nM for the first, 4260 nM for the second. The first is the more potent here.

First: Cn1nc2c(c1-c1ccccc1)CCN(C(=O)c1ccc3ncccc3c1)C2 [Example 90, (2-Methyl-3-phenyl-2,4,5,7-tetrahydro-6H-pyrazolo[3,4-c]pyridin-6-yl)(quinolin-6-yl)methanone]
Second: CCn1nc2c(c1-c1ccccc1)CCN(C(=O)c1ccc3ncccc3c1)C2 [Example 91, (2-Ethyl-3-phenyl-2,4,5,7-tetrahydro-6H-pyrazolo[3,4-c]pyridin-6-yl)(quinolin-6-yl)methanone]
The IC50 of the first is 3.4-fold lower: 227 nM for the first, 781 nM for the second. The first is the more potent here.

Going from `Cn1nc2c(c1-c1ccccc1)CCN(C(=O)c1ccc3ccccc3n1)C2` [Example 94, (2-Methyl-3-phenyl-2,4,5,7-tetrahydro-6H-pyrazolo[3,4-c]pyridin-6-yl)(quinolin-2-yl)methanone] to `Cn1nc2c(c1-c1ccccc1)CCN(C(=O)c1cnc3ccccc3c1)C2` [Example 95, (2-Methyl-3-phenyl-2,4,5,7-tetrahydro-6H-pyrazolo[3,4-c]pyridin-6-yl)(quinolin-3-yl)methanone], the IC50 rises from 282 nM to 984 nM (3.5-fold). The first is the more potent here.

First: Cn1nc2c(c1-c1ccccc1)CCN(C(=O)c1ccnc3c(F)cccc13)C2 [Example 96, (8-Fluoroquinolin-4-yl)(2-methyl-3-phenyl-2,4,5,7-tetrahydro-6H-pyrazolo[3,4-c]pyridin-6-yl)methanone]
Second: Cn1nc2c(c1-c1cccc(F)c1)CCN(C(=O)c1ccc3ncccc3c1)C2 [Example 100, (3-(3-Fluorophenyl)-2-methyl-2,4,5,7-tetrahydro-6H-pyrazolo[3,4-c]pyridin-6-yl)(quinolin-6-yl)methanone]
The IC50 of the first is 2.1-fold higher: 258 nM for the first, 125 nM for the second.

Compared with `Cn1nc2c(c1-c1cccc(OC(F)F)c1)CCN(C(=O)c1ccc3ncccc3c1)C2` [Example 98, (3-(3-(Difluoromethoxy)phenyl)-2-methyl-2,4,5,7-tetrahydro-6H-pyrazolo[3,4-c]pyridin-6-yl)(quinolin-6-yl)methanone], `Cn1nc2c(c1-c1cccc(Cl)c1)CCN(C(=O)c1ccc3ncccc3c1)C2` [Example 99, (3-(3-Chlorophenyl)-2-methyl-2,4,5,7-tetrahydro-6H-pyrazolo[3,4-c]pyridin-6-yl)(quinolin-6-yl)methanone] is 3.6-fold lower in IC50: 973 nM for the first, 268 nM for the second.

First: Cn1nc2c(c1-c1cc(F)cc(F)c1)CCN(C(=O)c1ccc3ncccc3c1)C2 [Example 101, (3-(3,5-Difluorophenyl)-2-methyl-2,4,5,7-tetrahydro-6H-pyrazolo[3,4-c]pyridin-6-yl)(quinolin-6-yl)methanone]
Second: CC1c2nn(C)c(-c3cc(F)cc(F)c3)c2CCN1C(=O)c1ccc2ncccc2c1 (stereo not drawn) [Example 106, (3-(3,5-Difluorophenyl)-2,7-dimethyl-2,4,5,7-tetrahydro-6H-pyrazolo[3,4-c]pyridin-6-yl)(quinolin-6-yl)methanone]
The IC50 of the first is 7.1-fold higher: 52.4 nM for the first, 7.36 nM for the second.

Going from `Cc1ccc(-c2c3c(nn2C)CN(C(=O)c2noc4ccccc24)CC3)s1` [Example 102, Benzo[d]isoxazol-3-yl(2-methyl-3-(5-methylthiophen-2-yl)-2,4,5,7-tetrahydro-6H-pyrazolo[3,4-c]pyridin-6-yl)methanone] to `Cn1nc2c(c1-c1ccc(C(F)(F)F)s1)CCN(C(=O)c1ccc3ncccc3c1)C2` [Example 103, (2-Methyl-3-(5-(trifluoromethyl)thiophen-2-yl)-2,4,5,7-tetrahydro-6H-pyrazolo[3,4-c]pyridin-6-yl)(quinolin-6-yl)methanone], the IC50 rises from 158 nM to 264 nM (1.7-fold). The first is the more potent here.

Going from `Cn1nc2c(c1-c1cc3ccccc3[nH]1)CCN(C(=O)c1ccc3ncccc3c1)C2` [Example 104, (3-(1H-Indol-2-yl)-2-methyl-2,4,5,7-tetrahydro-6H-pyrazolo[3,4-c]pyridin-6-yl)(quinolin-6-yl)methanone] to `Cn1nc2c(c1-c1cc3ccccc3n1C)CCN(C(=O)c1ccc3ncccc3c1)C2` [Example 105, (2-Methyl-3-(1-methyl-1H-indol-2-yl)-2,4,5,7-tetrahydro-6H-pyrazolo[3,4-c]pyridin-6-yl)(quinolin-6-yl)methanone], the IC50 falls from 791 nM to 406 nM (1.9-fold). The second is the more potent here.

First: Cc1ccc(-c2c3c(nn2C)[C@H](C)N(C(=O)c2ccc4nccnc4c2)CC3)o1 [Example 107, (S)-(2,7-Dimethyl-3-(5-methylfuran-2-yl)-2,4,5,7-tetrahydro-6H-pyrazolo[3,4-c]pyridin-6-yl)(quinoxalin-6-yl)methanone]
Second: C[C@H]1c2nn(C)c(-c3cccnc3)c2CCN1C(=O)c1ccc2nccnc2c1 [Example 108, (S)-(2,7-Dimethyl-3-(pyridin-3-yl)-2,4,5,7-tetrahydro-6H-pyrazolo[3,4-c]pyridin-6-yl)(quinoxalin-6-yl)methanone]
The IC50 of the first is 5-fold lower: 261 nM for the first, 1300 nM for the second. The first is the more potent here.

Compared with `C[C@H]1c2nn(C)c(-c3cncc(F)c3)c2CCN1C(=O)c1ccc2nccnc2c1` [Example 109, (S)-(3-(5-Fluoropyridin-3-yl)-2,7-dimethyl-2,4,5,7-tetrahydro-6H-pyrazolo[3,4-c]pyridin-6-yl)(quinoxalin-6-yl)methanone], `C[C@H]1c2nn(C)c(-c3cccc(Cl)c3)c2CCN1C(=O)c1cc(Cl)cc(OC(F)(F)F)c1` [Example 116, (S)-(3-Chloro-5-(trifluoromethoxy)phenyl)(3-(3-chlorophenyl)-2,7-dimethyl-2,4,5,7-tetrahydro-6H-pyrazolo[3,4-c]pyridin-6-yl)methanone] is 3.6-fold lower in IC50: 721 nM for the first, 199 nM for the second. The second is the more potent here.

Going from `CC1c2nn(-c3ccccc3)c(-c3ccccc3)c2CCN1C(=O)c1ccc2ncccc2c1` (stereo not drawn) [Example 113, (7-Methyl-2,3-diphenyl-2,4,5,7-tetrahydro-6H-pyrazolo[3,4-c]pyridin-6-yl)(quinolin-6-yl)methanone] to `C[C@H]1c2nn(C)c(-c3cccc(Cl)c3)c2CCN1C(=O)c1ncn(-c2ccccc2)n1` [Example 117, (S)-(3-(3-Chlorophenyl)-2,7-dimethyl-2,4,5,7-tetrahydro-6H-pyrazolo[3,4-c]pyridin-6-yl)(1-phenyl-1H-1,2,4-triazol-3-yl)methanone], the IC50 falls from 236 nM to 56.7 nM (4.2-fold).

Work on `CCc1nc(C(=O)N2CCc3c(nn(C)c3-c3cccc(Cl)c3)[C@@H]2C)nn1-c1ccccc1F` [Example 118, (S)-(3-(3-Chlorophenyl)-2,7-dimethyl-2,4,5,7-tetrahydro-6H-pyrazolo[3,4-c]pyridin-6-yl)(5-ethyl-1-(2-fluorophenyl)-1H-1,2,4-triazol-3-yl)methanone] yielded an IC50 of 13.8 nM.
